From patent US10759796B2, “CXCR4 inhibitors and uses thereof” (X4 Pharmaceuticals, Inc., priority 2016, dated 2020)

Key:
[1] = in vitro; settings: human, Caco-2, pH 7.4
Summary of the method: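 Compounds at 10 μM in HBSS pH 7.4 (0.1–0.3% DMSO) were dosed on Caco-2 monolayers, apical-to-basolateral and basolateral-to-apical, for 90 min at 37 °C, in duplicate. Monolayer integrity was checked by TEER and lucifer yellow flux, read by fluorescence at 485/535 nm. Compound was quantified by LC-MS/MS and Papp calculated.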

[2] = molecular target: Jurkat cells expressing CXCR4 (Homo sapiens (Human), UniProt P61073); experiment: Chemokine (CXCL12-AF647) binding inhibition assay; settings: CXCL12-AF647 25 ng/mL, read-out: IC50 CXCL-12 binding Jurkat
Jurkat cells expressing CXCR4, sequence (P61073 whole entry): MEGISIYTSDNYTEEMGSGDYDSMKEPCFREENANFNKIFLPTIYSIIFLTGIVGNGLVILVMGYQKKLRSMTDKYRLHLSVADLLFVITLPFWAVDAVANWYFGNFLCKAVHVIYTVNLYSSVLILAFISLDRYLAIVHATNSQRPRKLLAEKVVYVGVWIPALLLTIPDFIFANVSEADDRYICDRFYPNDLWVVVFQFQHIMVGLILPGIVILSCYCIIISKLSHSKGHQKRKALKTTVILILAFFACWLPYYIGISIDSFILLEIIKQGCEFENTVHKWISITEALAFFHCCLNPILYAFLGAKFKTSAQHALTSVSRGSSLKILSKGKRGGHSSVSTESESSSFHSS
Summary of the method: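 Cells in HBSS, 20 mM HEPES, 0.2% BSA, pH 7.4, preincubated 15 min at room temperature with compound, then 25 ng/mL CXCL12-AF647 for 30 min. After washing and paraformaldehyde fixation, bound ligand read by flow cytometry; percent inhibition calculated from MFI relative to unlabeled and ligand-only controls.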

[3] = molecular target: CXCR-4 transfected U87 cell line (U87.CXCR4) (Homo sapiens (Human), UniProt P61073); experiment: Intracellular CXCL-12-induced calcium mobilization assay (FLIPR); type: cell-based; settings: U87.CXCR4 cells, CXCL-12 25-50 ng/mL; read-out: IC50 CXCL-12 Ca2+ flux U87.CXCR4+
CXCR-4 transfected U87 cell line (U87.CXCR4), sequence (P61073 whole entry): as above
Summary of the method: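 U87.CXCR4 cells were seeded at 20,000 per well, cultured 12 hours, then loaded with 4 μM Fluo-2 AM for 45 min at 37° C. in HBSS with 20 mM HEPES and 0.2% BSA, pH 7.4. Calcium flux triggered by CXCL-12 (25-50 ng/mL) was tracked over time by FLIPR fluorescence at 37° C.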

SMILES	Papp A→B at 90 min, 10 μM [1]	Papp B→A at 90 min, 10 μM [1]	efflux ratio at 90 min, 10 μM [1]	IC50 [2]	IC50 [3]
Cc1cccnc1[C@@H]1CCC[C@H](c2nc3ccccn3c2[C@H](O)C2CCN(C)CC2)N1C [Compound I-55]	0.1 to 10 ×10⁻⁶ cm/s	0.1 to 10 ×10⁻⁶ cm/s	0.1 to 10	0.01 to 100 nM	≥ 1000 nM
CCN1CCN(c2cccc3nc([C@H]4CCC[C@@H](c5ncccc5C)N4C)c(CO)n23)CC1 [Compound I-61]	0.1 to 10 ×10⁻⁶ cm/s	10 to 30 ×10⁻⁶ cm/s	0.1 to 10	0.01 to 100 nM	0.01 to 100 nM
CCN1CCN(c2cccc3nc([C@H]4CCC[C@@H](c5ncccc5C(C)C)N4C)c(CO)n23)CC1 [Compound I-75]	0.1 to 10 ×10⁻⁶ cm/s	10 to 30 ×10⁻⁶ cm/s	0.1 to 10	100 to 1000 nM	≥ 1000 nM
Cc1cccnc1[C@@H]1CCC[C@H](c2cn3c(N4C5CCC4CNC5)cccc3n2)N1C [Compound I-110]	0.1 to 10 ×10⁻⁶ cm/s	10 to 30 ×10⁻⁶ cm/s	> 30	0.01 to 100 nM	0.01 to 100 nM
Cc1cccnc1[C@@H]1CCC[C@H](c2cn3c(N4CCN(C)CC4)cccc3n2)N1CCO [Compound I-87]	0.1 to 10 ×10⁻⁶ cm/s	10 to 30 ×10⁻⁶ cm/s	10 to 30	0.01 to 100 nM	0.01 to 100 nM
Cc1cccnc1[C@@H]1CCC[C@H](c2cn3c(N4CCN(C(C)C)CC4)cccc3n2)N1C [Compound I-15]	0.1 to 10 ×10⁻⁶ cm/s	10 to 30 ×10⁻⁶ cm/s	0.1 to 10	0.01 to 100 nM	0.01 to 100 nM
COCc1c([C@H]2CCC[C@@H](c3ncccc3C)N2C)nc2cccc(N3CCN(C)CC3)n12 [Compound I-12]	0.1 to 10 ×10⁻⁶ cm/s	10 to 30 ×10⁻⁶ cm/s	0.1 to 10	0.01 to 100 nM	0.01 to 100 nM
CCOCc1c([C@H]2CCC[C@@H](c3ncccc3C)N2C)nc2cccc(N3CCN(C4CC4)CC3)n12 [Compound I-58]	10 to 30 ×10⁻⁶ cm/s	10 to 30 ×10⁻⁶ cm/s	0.1 to 10	100 to 1000 nM	≥ 1000 nM
Cc1cccnc1[C@@H]1CCC[C@H](c2cn3c(N4CCN(CC(F)(F)F)CC4)cccc3n2)N1C [Compound I-14]	10 to 30 ×10⁻⁶ cm/s	10 to 30 ×10⁻⁶ cm/s	0.1 to 10	100 to 1000 nM	100 to 1000 nM
Clc1cccnc1[C@@H]1CCC[C@H](c2nc3cccc(N4CCNC5(CC5)C4)n3c2Cl)N1 [Compound I-167]	0.1 to 10 ×10⁻⁶ cm/s	0.1 to 10 ×10⁻⁶ cm/s	0.1 to 10	100 to 1000 nM	≥ 1000 nM
Cc1cccnc1[C@@H]1CCC[C@H](c2nc3ccccn3c2CN2CCOCC2)N1C [Compound I-73]	10 to 30 ×10⁻⁶ cm/s	10 to 30 ×10⁻⁶ cm/s	0.1 to 10	100 to 1000 nM	≥ 1000 nM
Cc1cccnc1[C@@H]1CCC[C@H](c2cn3c(N4CCN(C5CC5)CC4)cccc3n2)N1C [Compound I-66]	10 to 30 ×10⁻⁶ cm/s	10 to 30 ×10⁻⁶ cm/s	0.1 to 10	0.01 to 100 nM	100 to 1000 nM
